Measurements as given in article PMC5463454 (Cancer discovery, 2016).
Values joined by “and” are separate entries in the source; they are usually repeats but may differ in a detail not shown here. Equal values may be shown once.

Tests used:
[1] = test system: tumor cell line and patient-derived xenograft models; experiment: Xenograft tumor growth inhibition; type: in vivo, mice; conditions: day 21, daily oral 100 mg/kg
[2] = clinical; type: in vivo; conditions: for half-life / AUC(0-t) / Cmax / Tmax: human, plasma, oral
[3] = test system: melanoma cell line 537Mel (PTEN-null); experiment: Xenograft growth; type: in vivo, mice; conditions: 537Mel PTEN-null melanoma xenograft, QD, dose-dependent
[4] = models with alterations in PTEN or PIK3CA, n = 21
[5] = models without alterations, n = 6
[6] = 100 mg (n = 2), steady state, individual values
[7] = 100 mg, Day 15, 100 mg (n = 2), steady state, individual values

CC(C)NC[C@@H](C(=O)N1CCN(c2ncnc3c2[C@H](C)C[C@H]3O)CC1)c1ccc(Cl)cc1 [Ipatasertib]
mean %TGI (±SEM) [1, 4]: 95 ± 11% | median %TGI [1, 4]: 97% | mean %TGI (±SEM) [1, 5]: 38 ± 12% | median %TGI [1, 5]: 44% | Accumulation ratio, AUC0–24,ss (day 15)/AUC0–24 (day 1) ([2]; 25 mg (n = 3), geometric mean (%CV)): 2.78 (15.7%) | Accumulation ratio, AUC0–24,ss (day 15)/AUC0–24 (day 1) ([2]; 50 mg (n = 3), geometric mean (%CV)): 2.43 (32.1%) | AUC0–24,ss, Day 15 [2, 6]: 568 ng·h/mL and 239 ng·h/mL | Cmax, Day 15 [2, 6]: 53.0 ng/mL | Accumulation ratio, AUC0–24,ss (day 15)/AUC0–24 (day 1) ([2]; 100 mg (n = 2), individual values): 2.57 and 0.927 | clinical exposure relative to preclinical efficacy ([2]; 100 mg, most sensitive preclinical models): equivalent to TGI 60 | Accumulation ratio, AUC0–24,ss (day 15)/AUC0–24 (day 1) ([2]; 200 mg (n = 3), geometric mean (%CV)): 2.44 (28.1%) | Accumulation ratio, AUC0–24,ss (day 15)/AUC0–24 (day 1) ([2]; 400 mg (n = 3), geometric mean (%CV)): 1.95 (36.5%) | t1/2, Day 1 ([2]; 600 mg (n = 7), single dose, geometric mean (range)): 45.8 (36.7–55.0) h | Accumulation ratio, AUC0–24,ss (day 15)/AUC0–24 (day 1) ([2]; 600 mg (n = 7), geometric mean (%CV)): 1.80 (73.6%) | Accumulation ratio, AUC0–24,ss (day 15)/AUC0–24 (day 1) ([2]; 800 mg (n = 5), geometric mean (%CV)): 2.22 (20.0%) | mean accumulation ratio (AUC0–24,ss/AUC0–24, day 1), range over doses ([2]; doses of 200 mg to 800 mg): 1.80 to 2.44 | half-life [2]: 1910 to 3180 min | half-life ([2]; 25 mg): 268 min | AUC(0-t) ([2]; 25 mg, AUC0–24, Day 1, 25 mg (n = 3), single dose, geometric mean (%CV)): 31.8 ng·h/mL | AUC(0-t) ([2]; 25 mg, AUC0–24,ss, Day 15, 25 mg (n = 3), steady state, geometric mean (%CV)): 88.3 ng·h/mL | Cmax ([2]; 25 mg, Day 1, 25 mg (n = 3), single dose, geometric mean (%CV)): 8.93 ng/mL | Cmax ([2]; 25 mg, Day 15, 25 mg (n = 3), steady state, geometric mean (%CV)): 8.92 ng/mL | Tmax ([2]; 25 mg, Day 1, 25 mg (n = 3), single dose, median (range)): 0.5 h | Tmax ([2]; 25 mg, Day 15, 25 mg (n = 3), steady state, median (range)): 0.5 h | half-life ([2]; 50 mg): 606 min | AUC(0-t) ([2]; 50 mg, AUC0–24, Day 1, 50 mg (n = 3), single dose, geometric mean (%CV)): 70.3 ng·h/mL | AUC(0-t) ([2]; 50 mg, AUC0–24,ss, Day 15, 50 mg (n = 3), steady state, geometric mean (%CV)): 171 ng·h/mL | Cmax ([2]; 50 mg, Day 1, 50 mg (n = 3), single dose, geometric mean (%CV)): 13.3 ng/mL | Cmax ([2]; 50 mg, Day 15, 50 mg (n = 3), steady state, geometric mean (%CV)): 33.9 ng/mL | Tmax ([2]; 50 mg, Day 1, 50 mg (n = 3), single dose, median (range)): 2.92 h | Tmax ([2]; 50 mg, Day 15, 50 mg (n = 3), steady state, median (range)): 1 h | half-life ([2]; 100 mg): 1910 min | AUC(0-t) ([2]; 100 mg, AUC0–24, Day 1, 100 mg (n = 3), single dose, geometric mean (%CV)): 260 ng·h/mL | Cmax ([2]; 100 mg, Day 1, 100 mg (n = 3), single dose, geometric mean (%CV)): 59.8 ng/mL | Cmax [2, 7]: 76.2 ng/mL | Tmax ([2]; 100 mg, Day 1, 100 mg (n = 3), single dose, median (range)): 2.97 h | Tmax [2, 7]: 0.5 to 0.67 h | half-life ([2]; 200 mg): 2350 min | AUC(0-t) ([2]; 200 mg, AUC0–24, Day 1, 200 mg (n = 3), single dose, geometric mean (%CV)): 726 ng·h/mL | AUC(0-t) ([2]; 200 mg, AUC0–24,ss, Day 15, 200 mg (n = 3), steady state, geometric mean (%CV)): 1770 ng·h/mL | Cmax ([2]; 200 mg, Day 1, 200 mg (n = 3), single dose, geometric mean (%CV)): 130 ng/mL | Cmax ([2]; 200 mg, Day 15, 200 mg (n = 3), steady state, geometric mean (%CV)): 183 ng/mL | Tmax ([2]; 200 mg, Day 1, 200 mg (n = 3), single dose, median (range)): 3 h | Tmax ([2]; 200 mg, Day 15, 200 mg (n = 3), steady state, median (range)): 1 h | half-life ([2]; 400 mg): 3180 min | AUC(0-t) ([2]; 400 mg, AUC0–24, Day 1, 400 mg (n = 3), single dose, geometric mean (%CV)): 1650 ng·h/mL | AUC(0-t) ([2]; 400 mg, AUC0–24,ss, Day 15, 400 mg (n = 3), steady state, geometric mean (%CV)): 3210 ng·h/mL | Cmax ([2]; 400 mg, Day 1, 400 mg (n = 3), single dose, geometric mean (%CV)): 506 ng/mL | Cmax ([2]; 400 mg, Day 15, 400 mg (n = 3), steady state, geometric mean (%CV)): 838 ng/mL | Tmax ([2]; 400 mg, Day 1, 400 mg (n = 3), single dose, median (range)): 1 h | Tmax ([2]; 400 mg, Day 15, 400 mg (n = 3), steady state, median (range)): 1 h | half-life ([2]; 600 mg): 2750 min | AUC(0-t) ([2]; 600 mg, AUC0–24, Day 1, 600 mg (n = 7), single dose, geometric mean (%CV)): 2670 ng·h/mL | AUC(0-t) ([2]; 600 mg, AUC0–24,ss, Day 15, 600 mg (n = 7), steady state, geometric mean (%CV)): 4450 ng·h/mL | Cmax ([2]; 600 mg, Day 1, 600 mg (n = 7), single dose, geometric mean (%CV)): 488 ng/mL | Cmax ([2]; 600 mg, Day 15, 600 mg (n = 7), steady state, geometric mean (%CV)): 748 ng/mL | Tmax ([2]; 600 mg, Day 1, 600 mg (n = 7), single dose, median (range)): 0.58 h | Tmax ([2]; 600 mg, Day 15, 600 mg (n = 7), steady state, median (range)): 0.83 h | half-life ([2]; 800 mg): 2630 min | AUC(0-t) ([2]; 800 mg, AUC0–24, Day 1, 800 mg (n = 7), single dose, geometric mean (%CV)): 3220 ng·h/mL | AUC(0-t) ([2]; 800 mg, AUC0–24,ss, Day 15, 800 mg (n = 5), steady state, geometric mean (%CV)): 6670 ng·h/mL | Cmax ([2]; 800 mg, Day 1, 800 mg (n = 7), single dose, geometric mean (%CV)): 479 ng/mL | Cmax ([2]; 800 mg, Day 15, 800 mg (n = 5), steady state, geometric mean (%CV)): 879 ng/mL | Tmax ([2]; 800 mg, Day 1, 800 mg (n = 7), single dose, median (range)): 2 h | Tmax ([2]; 800 mg, Day 15, 800 mg (n = 5), steady state, median (range)): 3 h | tumor growth in vivo [3]: decreases the growth
